Data set [1] deals with T1, 20S CP (Homo sapiens, UniProt P20618+P28074). The data set is described as follows: LC/MS assay of peptide library as 20S CP substrates. Type of data set: biochemical. Conditions: 12 μM peptide, 9 nM 20S CP, 37° C., one hour. Here is the method: To evaluate this set of peptides as potential 20S CP substrates, we applied a similar LC/MS-based assay to that used to discover the immunoproteasome probe. Briefly, the peptides were dissolved in DMSO at a stock concentration of 600 μM. The peptides were then diluted in 50 mM tris buffer, pH 7.4, in a 96-well plate for a final assay concentration of 12 μM in two sets of triplicates. One set of triplicates served as a negative control, incubated in tris buffer alone. For analysis, this would correspond to the ionization intensity of completely intact samples, which can then be compared to the amount of intact peptide remaining in 20S CP-treated samples. To the other triplicate was added 20S CP to a final concentration of 9 nM. All samples were incubated at 37° C. for one hour before an equal volume of acetonitrile was added to halt degradation by denaturing the 20S CP. Samples were dried, resuspended in 50/50 water/acetonitrile with 0.1% formic acid and analyzed by LC/MS (example spectra can be found in Supporting Information Appendix B).
For each peptide, the mass of the full (uncleaved) structure was extracted (extracted ion chromatogram, EIC) from each sample and this peak was integrated to obtain the peak area. The peak areas for the negative control samples of individual structures were averaged and set to 1. Peak areas for 20S CP-treated samples were then scaled to the average for the untreated sample and the triplicates averaged to obtain a value for the fraction of full peptide remaining (FIG. 4). To confirm that the peptide was being cleaved at the desired position, the mass of the corresponding 4mer-peptide cleavage product was found in each 20S CP-treated sample with significant decrease in full peptide observed.

The subject of another data set is A549 cells. Description: Probe cleavage in live A549 cells with or without MG-132 pretreatment. Conditions: MG-132 10 μM pre-incubated one hour, each TAS probe at 10 μM. Type of data set: cell-based. Here is the method:
We next sought to determine if the TAS probes would be suitable for cell-based assays. To accomplish this, A549 cells were plated at a density of 5,000 cells/well in a black 96 well plate with a black bottom. After allowing the cells to adhere to the plate, the samples were washed with PBS three times then dosed with 10 μM of each probe in modified KRBH buffer. The change in fluorescence was recorded on a microplate reader for 90 min. After allowing the signal to equilibrate for […], each sample was set to zero and the future time points were scaled accordingly. As was done with the biochemical data, a linear regression was fit to each set of data. From the slope, it is observed that the rate for TAS2 was the highest. To determine the in-cell selectivity, a set of samples pretreated with MG-132 (10 μM), a proteasome inhibitor, was included for each probe. These samples were pre-incubated with MG-132 in cell culture media for one hour before washing with PBS and dosing with each probe in modified KRBH buffer. […] To ensure this decrease was not a consequence of cell death, cells were treated in the same way and analyzed using Cell-Titer Glo.

In data set [2] the test system is A498, SK-MEL-2, MEL-92.1, SH-SY5Y and HEK293T cell lines. Description: Cell viability by Cell-Titer Glo. The data set is classed as cell-based. Conditions: remaining cell lines, 48 hours. Here is the method: (§1) We also sought to correlate this proteasome activity trend with susceptibility to a proteasome inhibitor by determining the IC50 values of MG-132 with these six cells. Cells were dosed for 48 hours with increase concentrations of MG-132 then analyzed using Cell-Titer Glo to determine cell viability. […] Considering this, we still believe comparing cell lines for proteasome activity based on fluorescence with TAS2 would still provide insight to the relative dependency of various cancer cell lines on proteasome activity.

In the next data set the test system is MM.1R. The data set is described as follows: Cell viability by Cell-Titer Glo. Type of data set: cell-based. The settings on record: 48 hours. As to the method: as §1
A short description of data set [3]: Human serum stability of library peptides by LC/MS. The data set is classed as in vitro ADME. Conditions: 20S CP one hour vs 10% human serum 10 min. The source says:
This is supported by when we first optimized conditions for treating the peptides with human serum using Tyr-containing peptide.
Specifically, these were the four Phe derivatives tested. […] Because we were interested in the effects of unnatural amino acids in increasing the specificity of our 20S CP recognition sequence, we moved forward with Phe(4-Cl) and Phe(4-NO2) as Tyr substitutes in our probe structure to create TAS2 and TAS3, respectively (FIG. 1B).

Data set [4] has as its system 20S CP. The data set is described as follows: purified 20S CP. Conditions: 37° C., up to two hours.
Data set [5] can be described thus: 10% v/v human serum in tris buffer. The settings on record: up to 60 min.
Data set [6] has as its system 20S CP. The settings on record: cited from earlier work.
In data set [7] the target is T1, 20S CP. Description: Fluorescence hydrolysis of probes by purified 20S CP (plate reader). Type of data set: biochemical. As to the method:
The peptide recognition sequence used was based on the commercially available 4-mer AMC probe (FIG. 1A), specifically Leu-Leu-Val-Tyr (SEQ ID NO: 1), to generate TAS1 (FIG. 1B). To determine if TAS1 had any enhanced sensitivity, the two probes were compared under the same conditions with purified 20S CP. Briefly, the probes were incubated in triplicate at 10 and 30 μM with 9 nM […] at 37° C. The change in fluorescence was monitored for two hours and the endpoint values were averaged and graphed for comparison (FIG. 1C). Because the two fluorophores have different excitation and emission wavelengths, the two experiments were performed separately but using the same conditions for the plate reader (i.e. gain, number of flashes, settling time, etc.). […] Since, unlike Suc-LLVY-AMC (SEQ ID NO: 1), TAS1 has the potential to have more than one cleavage site which could result in an increase in fluorescence (on either side of Rh110), we confirmed that the increase in signal is only from the recognition and cleavage of the peptide at the Tyr moiety by analyzing the 30 μM TAS1 samples by LC/MS (FIG. 2).
With these new peptide sequences in hand, we returned to incorporating the Rh110-peptoid moiety and to compare the cleavage of TAS1-3 with the 20S CP. We incubated all three probes at various concentrations with 9 nM 20S CP and monitored the change in fluorescence using a microplate reader. […] In order to compare the three probes, we fit a linear regression for the points from 10-60 min for 30 μM of each probe to obtain a rate for the change in fluorescence (Table 1). Of the three, TAS1 was hydrolyzed the quickest, although the slope for TAS2 was similar. […] To confirm that the change in fluorescence was due to amide bond cleavage at the expected site on the peptide, we analyzed the samples at a concentration of 30 μM by LC/MS (FIG. 3).

Entries after “also recorded” stand apart in the source; their conditions may differ. Like-named read-outs stand apart in the source and are kept apart here. *1 amine or outer side, *2 acyl side, *3 side chain or, on linkers, in order; H or OH if unused. Where a SMILES comes first, the peptide text is derived from it. Where no end group is shown, it is not given here. [ ]: non-standard residue; d: D form. The star is where a group is joined. Phe(4-NO2) = N[C@@H](Cc1ccc([N+](=O)[O-])cc1)C(=O)O; Phe(4-Cl) = N[C@@H](Cc1ccc(Cl)cc1)C(=O)O; 2Thi = N[C@@H](Cc1cccs1)C(=O)O; AMC = Cc1cc(=O)oc2cc(N*)ccc12; Suc = O=C(CCC(=O)[*:2])[*:1]; Nva = CCC[C@H](N)C(=O)O; Cbz = O=C(OCc1ccccc1)*

Turning to `N[C@@H](CCO)C(=O)O` [Hse], the “Peptide cleaved by 20S CP” value at 20S CP [1] is on record as ~50%. Turning to `CC(C)C[C@@H](C=O)NC(=O)[C@H](CC(C)C)NC(=O)[C@H](CC(C)C)NC(=O)OCc1ccccc1` [MG-132] (Cbz-Leu-Leu-Leu-aldehyde), the “Decrease of slope of probe cleavage” value in the data set with A549 cells is ≥ 50%. In data set [2], the “IC50 (cell viability)” value was “higher than that of MM.1R”. The molecule further had a 50% inhibitory concentration (IC50) with MM.1R of 264 nM.

In the case of `CNCC(=O)O` [Sar], the “Cleavage by 20S CP compared to human serum” value in data set [3] is given as “no significant difference in cleavage; also recorded: near equal cleavage by both”. For the same molecule, the “Cleavage of peptide by 20S CP (in words)” value on 20S CP [1] is on record as “significantly cleaved”.

For `CCCC[C@H](N)C(=O)O` [norleucine], the “Peptide cleaved by 20S CP” value on 20S CP [1] is ~50%. As to “D-Phe: library peptide with D-Phe moiety in S1 position replacing Tyr, Ala-Ala dipeptide (LLV[dF]AA-NH2; N-terminus assumed; SMILES CC(C)C[C@H](NC(=O)[C@@H](N)CC(C)C)C(=O)N[C@H](C(=O)N[C@H](Cc1ccccc1)C(=O)N[C@@H](C)C(=O)N[C@@H](C)C(N)=O)C(C)C)”, the “Cleavage of peptide by 20S CP (in words)” value with 20S CP [1] is recorded as “did not accept”. Consider Leu-Leu-Val-Tyr, for which, in the data set with 20S CP [4], the cleaved bond result is “Tyr-Rh110” and the not cleaved result is given as “only new peaks formed were the expected cleavage products”. Further, in data set [5], the cleaved bond result is “Leu-Leu, first_seen, 30 min; also recorded: Leu-Val, 60 min” and the not cleaved entry was “no productive cleavage for either 30 or 60 min”.

Turning to “Nva: library peptide with norvaline in S1 position replacing Tyr, Ala-Ala dipeptide (LLV[Nva]AA-NH2; N-terminus assumed; SMILES CCC[C@H](NC(=O)[C@@H](NC(=O)[C@H](CC(C)C)NC(=O)[C@@H](N)CC(C)C)C(C)C)C(=O)N[C@@H](C)C(=O)N[C@@H](C)C(N)=O)”, the “Peptide cleaved by 20S CP” value with 20S CP [1] is ~50%. For “Phe(4-Cl): library peptide with Phe(4-Cl) in S1 position replacing Tyr, Ala-Ala dipeptide (LLV[Phe(4-Cl)]AA-NH2; N-terminus assumed; SMILES CC(C)C[C@H](NC(=O)[C@@H](N)CC(C)C)C(=O)N[C@H](C(=O)N[C@@H](Cc1ccc(Cl)cc1)C(=O)N[C@@H](C)C(=O)N[C@@H](C)C(N)=O)C(C)C)”, the “Cleavage by 20S CP compared to human serum” value in data set [3] was “greater than three-times favored cleavage by the 20S CP”. Still for that read-out and setting: with “Phe(4-NO2): library peptide with Phe(4-NO2) in S1 position replacing Tyr, Ala-Ala dipeptide (LLV[Phe(4-NO2)]AA-NH2; N-terminus assumed; SMILES CC(C)C[C@H](NC(=O)[C@@H](N)CC(C)C)C(=O)N[C@H](C(=O)N[C@@H](Cc1ccc([N+](=O)[O-])cc1)C(=O)N[C@@H](C)C(=O)N[C@@H](C)C(N)=O)C(C)C)” the entry was “greater than three-times favored cleavage by the 20S CP”; with “Phe: library peptide with Phe in S1 position replacing Tyr, Ala-Ala dipeptide (LLVFAA)”, “greater than three-times favored cleavage by the 20S CP”. Take Suc-LLVY-{AMC}: the cleaved bond result with 20S CP [6] is recorded as “Tyr-AMC”.

With “TAS3: Rh110-based peptide/peptoid hybrid probe with Phe(4-NO2) as Tyr substitute (LLV[Phe(4-NO2)]; also: Rh110-based probe, place not given here, peptide/peptoid hybrid)”, in the data set with 20S CP [7] (30 μM probe, 9 nM purified 20S CP, linear regression 10-60 min), the “Rate of Hydrolysis” value is reported as 28.1 ΔRFU/min. Also, the “Cleavage products after incubation with 20S CP (LC/MS)” value with 20S CP [7] (30 μM probe, LC/MS) is given as “only produced the expected cleavage products”. For the same molecule, the Background fluorescence level result with 20S CP [7] (purified 20S CP assay) is listed as “considerably higher level of background”. As to “Thi: library peptide with thienylalanine in S1 position replacing Tyr, Ala-Ala dipeptide (LLV[2Thi]AA-NH2; N-terminus assumed; SMILES CC(C)C[C@H](NC(=O)[C@@H](N)CC(C)C)C(=O)N[C@H](C(=O)N[C@@H](Cc1cccs1)C(=O)N[C@@H](C)C(=O)N[C@@H](C)C(N)=O)C(C)C)”, in data set [3], the “Cleavage by 20S CP compared to human serum” value was “near equal cleavage by both”. Also, the “Cleavage of peptide by 20S CP (in words)” value in the data set with 20S CP [1] was “highest amount of cleavage”.

What is called IC50 is the midpoint of a concentration-inhibition curve.

These data come from US12618847B2 (Purdue Research Foundation, priority 2020, dated 2026).
